This note sets out measurements from US20100093811A1 (priority 2007, published 2010).

In test [1] the target is wild-type HIV-1 protease (Human immunodeficiency virus type 1 group M subtype B, UniProt P04585). The experiment in a line: Assay for inhibition of microbial expressed HIV protease. In kind it is biochemical. A digest of the protocol:
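Inhibition taken from HPLC (C18) product peak areas after phosphoric acid quench. Reaction: 440 micromolar Val-Ser-Gln-Asn-(betanapthyl)Ala-Pro-Ile-Val peptide, 5 pM E. coli-made protease, 1 h at 30° C, following 30 min room-temperature inhibitor preincubation in pH 5.5 acetate/NaCl/BSA buffer.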

Test [2] relates to acute HIV infection of T-lymphoid cells. The experiment in a line: Assay for inhibition of HIV replication (spread assay). It counts as cell-based, HIV-1. Here is the method: • Assay for Inhibition of HIV Replication
Assays for the inhibition of acute HIV infection of T-lymphoid cells were conducted in accordance with Vacca, J. P. et al., Proc. Natl. Acad. Sci. USA 1994, 91: 4096.

Setting [3] is: wild-type HIV-1 protease expressed in E. coli, peptide substrate, pH 5.5, read-out: Enzyme Inhibition - IC50.
[4] abbreviates: Human immunodeficiency virus 1, T-lymphoid, read-out: Spread - IC95.

pIC50: −log10 of the molar value. Like-named read-outs stand apart in the source and are kept apart here.

In the case of `CCN([C@H](CO)CCC[C@H](C)NC(=O)[C@@H](NC(=O)OC)C(c1ccccc1)c1ccccc1)S(=O)(=O)c1ccc(N)cc1` [Example G5, N-{(1S,5S)-5-[[(4-aminophenyl)sulfonyl](ethyl)amino]-6-hydroxy-1-methylhexyl}-Nα-(methoxycarbonyl)-β-phenyl-L-phenylalaninamide], in test [1] (setting [3]), the pIC50 was 9.42. For the same compound, the IC95 in test [2] (setting [4]) turned out to be 64 nM.
Regarding `COC(=O)N[C@H](C(=O)N[C@@H](C)CCC[C@@H](CO)N(C)S(=O)(=O)c1ccc(CO)cc1)C(c1ccccc1)c1ccccc1` [Example G6, N-{(1S,5S)-6-hydroxy-5-[{[4-(hydroxymethyl)phenyl]sulfonyl}(methyl)amino]-1-methylhexyl}-Nα-(methoxycarbonyl)-β-phenyl-L-phenylalaninamide], the pIC50 in test [1] (setting [3]) is 9.42. Further, in test [2] (setting [4]), the IC95 is 161 nM.
For `COC(=O)N[C@H](C(=O)N[C@@H](C)CCC[C@@H](CO)N(CC1CC1)S(=O)(=O)c1ccc(N)cc1)C(c1ccccc1)c1ccccc1` [Example G7, N-{(1S,5S)-5-[[(4-aminophenyl)sulfonyl](cyclopropylmethyl)amino]-6-hydroxy-1-methylhexyl}-Nα-(methoxycarbonyl)-β-phenyl-L-phenylalaninamide], the negative-log IC50 (pIC50) in test [1] (setting [3]) was 10.62. The IC95 in test [2] (setting [4]) is 15 nM.
On the same counts, the results for `COC(=O)N[C@@H](Cc1ccccc1Cl)C(=O)N[C@@H](C)CCC[C@@H](CO)N(C)S(=O)(=O)c1ccc(CO)cc1` [Example G8, 2-chloro-N-{(1S,5S)-6-hydroxy-5-[{[4-(hydroxymethyl)phenyl]sulfonyl}(methyl)amino]-1-methylhexyl}-Nα-(methoxycarbonyl)-L-phenylalaninamide] are 8.49 and 191 nM.
In the same order, the values of `CCN([C@H](CO)CCC[C@H](C)NC(=O)[C@H](Cc1ccccc1Cl)NC(=O)OC)S(=O)(=O)c1ccc(CO)cc1` [Example G9, 2-chloro-N-[(1S,5S)-5-(ethyl{[4-(hydroxymethyl)phenyl]sulfonyl}amino)-6-hydroxy-1-methylhexyl]-Nα-(methoxycarbonyl)-L-phenylalaninamide] are 9.20 and 102 nM.
Regarding `COC(=O)N[C@@H](Cc1ccccc1Cl)C(=O)N[C@@H](C)CCC[C@@H](CO)N(C(C)C)S(=O)(=O)c1ccc(CO)cc1` [Example G10, 2-chloro-N-{(1S,5S)-6-hydroxy-5-[{[4-(hydroxymethyl)phenyl]sulfonyl}(isopropyl)amino]-1-methylhexyl}-Nα-(methoxycarbonyl)-L-phenylalaninamide], the pIC50 in test [1] (setting [3]) is 9.41. Moreover, the IC95 in test [2] (setting [4]) stood at 49 nM.
In the same order, the values of `COC(=O)N[C@@H](Cc1ccccc1Cl)C(=O)N[C@@H](C)CCC[C@@H](CO)N(C(C)C)S(=O)(=O)c1ccc(N)cc1` [Example G11, N-{(1S,5S)-5-[[(4-aminophenyl)sulfonyl](isopropyl)amino]-6-hydroxy-1-methylhexyl}-2-chloro-Nα-(methoxycarbonyl)-L-phenylalaninamide] are 8.89 and 93 nM.
In the same order, the values of `COC(=O)N[C@@H](Cc1ccccc1Br)C(=O)N[C@@H](C)CCC[C@@H](CO)N(CC(C)C)S(=O)(=O)c1ccc(CO)cc1` [Example G12, 2-bromo-N-{(1S,5S)-6-hydroxy-5-[{[4-(hydroxymethyl)phenyl]sulfonyl}(isobutyl)amino]-1-methylhexyl}-Nα-(methoxycarbonyl)-L-phenylalaninamide] are 10.26 and 15 nM.
In the same order, the values of `COC(=O)N[C@@H](Cc1ccccc1Br)C(=O)N[C@@H](C)CCC[C@@H](CO)N(C(C)C)S(=O)(=O)c1ccc(CO)cc1` [Example G13, 2-bromo-N-{(1S,5S)-6-hydroxy-5-[{[4-(hydroxymethyl)phenyl]sulfonyl}(isopropyl)amino]-1-methylhexyl}-Nα-(methoxycarbonyl)-L-phenylalaninamide] are 9.54 and 71 nM.
For `COC(=O)N[C@H](C(=O)N[C@@H](C)CCC[C@@H](CO)N(CCCF)S(=O)(=O)c1ccc(CO)cc1)C(c1ccccc1)c1ccccc1` [Example G14, N-[(1S,5S)-5-((3-fluoropropyl){[4-(hydroxymethyl)phenyl]sulfonyl}amino)-6-hydroxy-1-methythexyl]-Nα-(methoxycarbonyl)-β-phenyl-L-phenylalaninamide], the pIC50 in test [1] (setting [3]) is 11.00. For the same compound, the IC95 in test [2] (setting [4]) was determined as 16 nM.
On the same counts, the results for `COC(=O)N[C@@H](Cc1ccccc1Br)C(=O)N[C@@H](C)CCC[C@@H](CO)N(C(C)C)S(=O)(=O)c1ccc(N)cc1` [Example G15, N-{(1S,SS)-5-[[(4-aminophenyl)sulfonyl](isopropyl)amino]-6-hydroxy-1-methylhexyl}-2-bromo-Nα-(methoxycarbonyl)-L-phenylalaninamide] are 9.23 and 77 nM.
Consider `COC(=O)N[C@H](C(=O)N[C@@H](C)CCC[C@@H](CO)N(CC(C)C)S(=O)(=O)c1ccc(CO)cc1)C(c1ccccc1)c1ccccc1` [Example G16, N-{(1S,5S)-6-hydroxy-5-[{[4-(hydroxymethyl)phenyl]sulfonyl}(isobutyl)amino]-1-methylhexyl}-Nα-(methoxycarbonyl)-β-phenyl-L-phenylalaninamide], for which, in test [1] (setting [3]), the pIC50 was 11.00. Moreover, in test [2] (setting [4]), the IC95 stood at 8 nM.
In the same order, the values of `COC(=O)N[C@H](C(=O)N[C@@H](C)CCC[C@@H](CO)N(C1CCC1)S(=O)(=O)c1ccc(CO)cc1)C(c1ccccc1)c1ccccc1` [Example G17, N-[(1S,5S)-5-(cyclobutyl{[4-(hydroxymethyl)phenyl]sulfonyl}amino)-6-hydroxy-1-methylhexyl]-Nα-(methoxycarbonyl)-β-phenyl-L-phenylalaninamide] are 10.11 and 137 nM.
In the same order, the values of `CC[C@@H](CCC[C@@H](CO)N(C(C)C)S(=O)(=O)c1ccc(N)cc1)NC(=O)[C@@H](NC(=O)OC)C(c1ccccc1)c1ccccc1` [Example G18, N-{(1S,5S)-5-[[(4-aminophenyl)sulfonyl](isopropyl)amino]-1-ethyl-6-hydroxyhexyl}-Nα-(methoxycarbonyl)-β-phenyl-L-phenylalaninamide] are 9.12 and 199 nM.
On the same counts, the results for `CC[C@@H](CCC[C@@H](CO)N(C(C)C)S(=O)(=O)c1ccc(CO)cc1)NC(=O)[C@@H](NC(=O)OC)C(c1ccccc1)c1ccccc1` [Example G19, N-{(1S,5S)-1-ethyl-6-hydroxy-5-[{[4-(hydroxymethyl)phenyl]sulfonyl}(isopropyl)amino]hexyl}-Nα-(methoxycarbonyl)-β-phenyl-L-phenylalaninamide] are 10.12 and 43 nM.
As to `CCCN([C@H](CO)CCC[C@@H](NC(=O)[C@@H](NC(=O)OC)C(c1ccccc1)c1ccccc1)C(F)(F)F)S(=O)(=O)c1ccc(N)cc1` [Example H1, N-[(1R,5S)-5-[[(4-aminophenyl)sulfonyl](propyl)amino]-6-hydroxy-1-(trifluoromethyl)hexyl]-Nα-(methoxycarbonyl)-β-phenyl-L-phenylalaninamide], in test [1] (setting [3]), the pIC50 is 10.66. Further, the IC95 in test [2] (Human immunodeficiency virus 1, T-lymphoid, read-out: Spread - IC95 (nM)) came out at 14 nM.
For `COC(=O)N[C@H](C(=O)N[C@H](CCC[C@@H](CO)N(CCC(C)C)S(=O)(=O)c1ccc(N)cc1)C(F)(F)F)C(c1ccccc1)c1ccccc1` [Example H2, N-[(1R,5S)-5-[[(4-aminophenyl)sulfonyl](3-methylbutyl)amino]-6-hydroxy-1-(trifluoromethyl)hexyl]-Nα-(methoxycarbonyl)-β-phenyl-L-phenylalaninamide], the negative-log IC50 (pIC50) in test [1] was 11.00. Also, the 95% effect concentration (IC95) in test [2] (setting [4]) came out at 4 nM.
As for `COC(=O)N[C@H](C(=O)N[C@H](CCC[C@@H](CO)N(C(C)C)S(=O)(=O)c1ccc(N)cc1)C(F)(F)F)C(c1ccccc1)c1ccccc1` [Example H3, N-[(1R,55)-5-[[(4-aminophenyl)sulfonyl](isopropyl)amino]-6-hydroxy-1-(trifluoromethyl)hexyl]-Nα-(methoxycarbonyl)-β-phenyl-L-phenylalaninamide], the pIC50 in test [1] (setting [3]) is 10.12. In addition, in test [2] (inhibition of HIV-1 replication, 10% FBS, read-out: Spread - IC95), the concentration for an effect of 95% (IC95) is recorded as 18 nM.
Take `CCN([C@H](CO)CCC[C@@H](NC(=O)[C@@H](NC(=O)OC)C(c1ccccc1)c1ccccc1)C(F)(F)F)S(=O)(=O)c1ccc(N)cc1` [Example H4, N-[(1R,5S)-5-[[(4-aminophenyl)sulfonyl](ethyl)amino]-6-hydroxy-1-(trifluoromethyl)hexyl]-Nα-(methoxycarbonyl)-β-phenyl-L-phenylalaninamide]: the pIC50 in test [1] is 9.76. The IC95 in test [2] (setting [4]) came out at 29 nM.
`COC(=O)N[C@H](C(=O)N[C@H](CCC[C@@H](CO)N(CC(C)C)S(=O)(=O)c1ccc(N)cc1)C(F)(F)F)C(c1ccccc1)c1ccccc1` [Example H5, N-[(1R,5S)-5-[[(4-aminophenyl)sulfonyl](isobutyl)amino]-6-hydroxy-1-(trifluoromethyl)hexyl]-Nα-(methoxycarbonyl)-β-phenyl-L-phenylalaninamide]: the pIC50 in test [1] is 10.70. In addition, the 95% effect concentration (IC95) in test [2] (setting [4]) was 7 nM.
In test [1], `COC(=O)N[C@H](C(=O)N[C@H](CCC[C@@H](CO)N(C)S(=O)(=O)c1ccc(N)cc1)C(F)(F)F)C(c1ccccc1)c1ccccc1` [Example H6, N-[(1R,5S)-5-[[(4-aminophenyl)sulfonyl](methyl)amino]-6-hydroxy-1-(trifluoromethyl)hexyl]-Nα-(methoxycarbonyl)-β-phenyl-L-phenylalaninamide] showed a pIC50 of 8.99. Besides, the IC95 in test [2] (setting [4]) was 138 nM.

As a reminder, the pIC50 is the negative decadic logarithm of the IC50, by convention in mol/L. A word on the IC95: it is the concentration needed for an effect of 95%.
